System: cortical neurons cultured with microglia
Test: Neuron survival and neurite network (MAP-2) in cortical neurons after Aβ1-42 injury
Assay type: cell-based, rat
Settings: Aβ1-42 injury 72 h, co-administered; 10 nM to 100 nM
Procedure: Rat cortical neurons cultured with microglia were cultured as described by Callizot et al. in J Neurosci Res. 2013, 91: 706-716 with modifications to include microglial cells. Pregnant female rats (Rats Wistar; Janvier Labs France) of 15 days of gestation were killed, after a deep anesthesia with CO2, by cervical dislocation. Then, fetuses were collected and immediately placed in ice-cold L15 Leibovitz medium with a 2% penicillin (10,000 U/ml) and streptomycin (10 mg/ml) solution (PS) and 1% bovine serum albumin (BSA). Cortexes were treated for 20 min at 37° C. with a trypsin-EDTA solution at a final concentration of 0.05% trypsin and 0.02% EDTA. The dissociation was stopped by addition of Dulbecco's modified Eagle's medium (DMEM) with 4.5 g/liter of glucose, containing DNAse I grade II (final concentration 0.5 mg/ml) and 10% fetal calf serum (FCS). Cells were mechanically dissociated by three forced passages through the tip of a 10-mL pipette. […] Viable cells were counted in a Neubauer cytometer, using the trypan blue exclusion test. […]
Cortical neurons were intoxicated with A3 solutions (see below) after 11 days of culture. […] This solution was gently agitated for 3 days at 37° C. in the dark and immediately used after being properly diluted in control medium to the concentrations used ([…] of Aβ1-42 preparation containing […] of Aβ oligomers (AβO) measured by WB). […]

N-(3-(4-(3-(diisobutylamino)propyl)piperazin-1-yl)propyl)-1H-benzo[d]imidazol-2-amine sesqui-succinate salt [sesqui-succinate salt Form 1]
neurite network (MAP-2 staining): significantly longer | neuron survival: total number of neurons (MAP-2 staining): neuroprotective

Reference: US20230391729A1, “SUCCINATE SALTS OF N-(3-(4-(3-(DIISOBUTYLAMINO)PROPYL)PIPERAZIN-1-YL)PROPYL)-1H-BENZO[D]IMIDAZOL-2-AMINE, PREPARATION THEREOF AND USE OF THE SAME” (ALZPROTECT, priority 2020, published 2023)
